According to patent US9204653B2, “5-fluoro pyrimidine derivatives” (DOW AGROSCIENCES LLC, priority 2008, dated 2015):
Read-outs that look alike come from different tables or passages of the source.

Tested on: Mycosphaerella graminicola; Anamorph: Septoria tritici; Bayer Code SEPTTR
Assay: Leaf blotch of wheat, foliar fungicide treatment, one day protectant (1DP) or three day curative (3DC)
Type: in vivo, Septoria tritici on wheat plants (variety Yuma)
Conditions: Zymoseptoria tritici, rating of percent disease control
[1] = 24 h, one day protectant (1DP), read-out: SETTTR 1DP 25 ppm
[2] = 24 h, one day protectant (1DP), read-out: SEPTTR 1DP 100 ppm
[3] = 72 h, three day curative (3DC), read-out: SEPTTR 3DC 25 ppm
[4] = 72 h, three day curative (3DC), read-out: SEPTTR 3DC 100 ppm

Row | Compound | pest or weed control at 25 ppm [1] [%] | pest or weed control at 100 ppm [2] [%] | pest or weed control at 25 ppm [3] [%] | pest or weed control at 100 ppm [4] [%]
1 | CCOC(=O)CCC(=O)NNc1nc(OCc2ccccc2)ncc1F [Compound 344] | 26 to 50 | 26 to 50 | 0 to 25 | 26 to 50
2 | CC[Si](CC)(CC)Nc1nc(OCc2cccc(F)c2)ncc1F [Compound 346] | 76 to 100 | 76 to 100 | 76 to 100 | 76 to 100
3 | Nc1nc(OS(=O)(=O)c2cccs2)ncc1F [Compound 348] | 76 to 100 | 76 to 100 | 76 to 100 | 76 to 100
4 | COc1cc(Cl)c(COc2ncc(F)c(N)n2)cc1OC [Compound 350] | 76 to 100 | 76 to 100 | 76 to 100 | 76 to 100
5 | COc1ccc(OC)c(COc2ncc(F)c(N)n2)c1 [Compound 351] | 76 to 100 | 76 to 100 | 76 to 100 | 76 to 100
6 | COc1ccccc1COc1ncc(F)c(NCOCc2ccccc2)n1 [Compound 354] | 51 to 75 | 76 to 100 | 26 to 50 | 76 to 100
7 | Nc1nc(OC(c2ccc(F)cc2)c2ccc(F)cc2)ncc1F [Compound 355] | 76 to 100 | 76 to 100 | 76 to 100 | 76 to 100
8 | Fc1cnc(OCc2ccccc2)nc1N/N=C/c1ccco1 [Compound 357] | 26 to 50 | 26 to 50 | 0 to 25 | 51 to 75
9 | CC(C)=NNc1nc(OCc2ccc(F)cc2)ncc1F [Compound 358] | 0 to 25 | 51 to 75 | 26 to 50 | 76 to 100
10 | CN(C)/C=N/c1nc(OS(=O)(=O)c2ccc(Cl)cc2)ncc1F [Compound 359] | 76 to 100 | 76 to 100 | 76 to 100 | 26 to 50
11 | O=C(Nc1nc(OCc2cccc(F)c2)ncc1F)OCc1cccc(F)c1 [Compound 360] | 76 to 100 | 76 to 100 | 76 to 100 | 76 to 100
12 | CN(C)/C=N/c1nc(OC(=O)Oc2ccc(Cl)cc2)ncc1F [Compound 361] | 51 to 75 | 76 to 100 | 76 to 100 | 76 to 100
13 | COCNc1nc(OCc2ccc(F)cc2)ncc1F [Compound 362] | 51 to 75 | 76 to 100 | 51 to 75 | 76 to 100
14 | O=C(Nc1nc(OCc2ccc(F)cc2)ncc1F)c1ccccc1 [Compound 364] | 76 to 100 | 76 to 100 | 76 to 100 | 76 to 100
15 | Cc1cc(COc2ncc(F)c(N)n2)ccc1F [Compound 365] | 76 to 100 | 76 to 100 | 76 to 100 | 76 to 100
16 | Cn1ccc(COc2ncc(F)c(NSc3ccccc3[N+](=O)[O-])n2)n1 [Compound 366] | 76 to 100 | 76 to 100 | 51 to 75 | 76 to 100
17 | COc1cccc(COc2ncc(F)c(N(N)c3ccccc3)n2)c1 [Compound 367] | 0 to 25 | 0 to 25 | 0 to 25 | 0 to 25
18 | Nc1nc(OCc2cccc(OC(F)F)c2)ncc1F [Compound 368] | 76 to 100 | 76 to 100 | 76 to 100 | 76 to 100
